Test results reported in patent US11945784B2, “IRE1 small molecule inhibitors” (Cornell University, priority 2018, dated 2024).

Assays:
IRE1α [1] = target: T1, IRE1α (Homo sapiens (Human), UniProt O75460); test: In vitro FRET assay; type: biochemical; settings: XBP1 RNA probe
Procedure: In vitro FRET assay was performed to evaluate the ability of select compounds to inhibit IRE1, the results of which are summarized in Table 3. To perform the in vitro FRET assay, 1× complete assay buffer (CAB; […], 50 mM sodium citrate pH 7.15, 1 mM magnesium acetate, 0.02% tween 20) was used to dilute SignalChem IRE1α protein to a final concentration of 2 nM. Selected compounds were serially diluted with DMSO in a non-binding black 384-well plate for a total of 15 ul in each well. 2 ul of the serially diluted compound or DMSO control were then added to new wells containing 98 ul of 1×CAB, for a total volume of 100 ul, 10 ul of which were then transferred to wells of a new plate. 5 ul of the diluted IRE1α was then added to each well. 5 ul of a […] XBP1 RNA probe was then added to each well. Fluorescence was then read over 30 minutes in kinetic mode (485/515 nm).
Two RNA probes were used, XBP1 wildtype (SEQ ID NO: 2) which is able to be spliced by active IRE1α or XBP1 mutant (SEQ ID NO: 3) which is unable to be spliced. Each probe contained a 5′ 6-FAM modification and a 3′ IOWA Black FQ modification.
A second FRET assay was performed to assess ATP-mediated inhibition. In this case, compounds and IRE1α were prepared and combined as discussed above, with the addition of ATP up to 1 mM final concentration. This mixture was incubated at room temperature for 60 minutes and then 5 ul of 400 nM XBP1 wildtype or mutant RNA probe was added. Plates were then read over 30 minutes in kinetic mode (485/515 nm) and rate of fluorescence increase calculated for different compound dilutions to determine IC50 (Table 3).

IRE1α [2] = target: T1, IRE1α; test: In vitro luciferase assay (IRE1α Endoribonuclease Nanoluciferase Assay); type: cell-based; settings: 293T cells, XBP1 luciferase reporter
Procedure: Compounds disclosed herein were assessed for disruption of IRE-1 signaling using a IRE1α Endoribonuclease Nanoluciferase Assay. Briefly, 2.5×10^6 293T cells were seeded in a 10 cm^2 tissue culture plate. About 24 hours later, the cells were transfected with Effectene. In a 15 mL Tube, the following was added: 2 μg XBP1 luciferase reporter plasmid (PGK-Luc2-P2A-XBP1u-Nanoluciferase-PEST); 300 μl EC buffer; and 16 μl Enhancer, followed by incubation at room temp for 5 minutes. Next, 60 μl Effectene (Qiagen 301427) was added, followed by incubation at room temperature for 10 minutes. 2.6 mL cDMEM media was added. Old media was aspirated from the cells, followed by addition of 7 mL fresh media. Full transfection mixture was added dropwise to cells. Cells were incubated for 6 hours, followed by trypsinization, centrifugation and resuspension in 11 mL media. 100 uL of cells were plated per a well in a 96 well plate. A day later, ER stressors of choice+/−inhibitors were added. To harvest, media was aspirated from cells completely, then 50 uL 1× passive lysis buffer (Promega: E1941) was added per well and put on shaker (300 rpm) for 30 minutes at room temperature. Cells were centrifuged, and 15 uL sample per well was added to a new, opaque white 384 well plate (Corning 3570). 15 uL OneGlo (nanoluciferase kit, Promega N1630) was added. Plates were spun down, placed on shaker (300 rpm) for 10 minutes. Plates were read on luminometer, 1000 ms integration time per well. 15 uL Stop and Glo (nanoluciferase kit) was added. Plates were spun down, placed on shaker (300 rpm) for 10 minutes. Plates were read on luminometer, 1000 ms second integration time per well. Recordings are provided below in Table 4

T1 sequence (O75460 19-977): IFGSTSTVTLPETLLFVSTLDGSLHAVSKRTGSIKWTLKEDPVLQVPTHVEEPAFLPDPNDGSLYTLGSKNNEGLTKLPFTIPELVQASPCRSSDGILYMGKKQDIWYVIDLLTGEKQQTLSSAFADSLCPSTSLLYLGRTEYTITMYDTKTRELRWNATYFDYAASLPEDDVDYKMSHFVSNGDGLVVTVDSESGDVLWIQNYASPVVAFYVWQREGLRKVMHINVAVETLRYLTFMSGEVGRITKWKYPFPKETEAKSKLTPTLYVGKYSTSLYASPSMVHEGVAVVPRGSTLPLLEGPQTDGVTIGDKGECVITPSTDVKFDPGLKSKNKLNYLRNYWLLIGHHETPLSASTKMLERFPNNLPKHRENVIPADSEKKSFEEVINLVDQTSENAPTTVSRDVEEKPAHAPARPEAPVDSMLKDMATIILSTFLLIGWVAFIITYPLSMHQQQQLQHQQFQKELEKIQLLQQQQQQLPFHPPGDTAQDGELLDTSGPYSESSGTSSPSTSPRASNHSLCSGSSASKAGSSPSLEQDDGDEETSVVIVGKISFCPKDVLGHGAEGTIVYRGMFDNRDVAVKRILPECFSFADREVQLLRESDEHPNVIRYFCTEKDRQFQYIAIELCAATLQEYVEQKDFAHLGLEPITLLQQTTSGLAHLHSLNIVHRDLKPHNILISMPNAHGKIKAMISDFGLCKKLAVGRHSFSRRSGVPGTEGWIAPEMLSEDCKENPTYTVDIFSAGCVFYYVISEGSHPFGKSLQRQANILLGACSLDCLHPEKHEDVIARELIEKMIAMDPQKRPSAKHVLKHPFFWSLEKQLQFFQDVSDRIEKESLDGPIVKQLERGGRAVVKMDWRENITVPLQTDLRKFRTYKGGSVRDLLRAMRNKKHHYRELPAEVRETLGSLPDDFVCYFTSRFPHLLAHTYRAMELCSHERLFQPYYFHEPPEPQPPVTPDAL

SMILES | IC50 (IRE1α [1]) [nM] | EC50 (IRE1α [2]) [nM]
COc1nc(NS(=O)(=O)c2cccc(F)c2Cl)ccc1/C=C/c1cnc(NC2CCC(N(C)C)CC2)nc1 (single isomer, unassigned) [Compound 39, 2-chloro-N-(5-((E)-2-(2-(((1r,4r)-4-(dimethylamino)cyclohexyl)amino)pyrimidin-5-yl)vinyl)-6-methoxypyridin-2-yl)-3-fluorobenzenesulfonamide] | ≤ 1 | ≤ 5
CCCc1nc(NC2CCC(N)CC2)ncc1/C=C/c1ccc(NS(=O)(=O)c2ccccc2Cl)cc1 (stereo not shown) [Compound 4, N-(4-((E)-2-(2-(((1r,4r)-4-aminocyclohexyl)amino)-4-propylpyrimidin-5-yl)vinyl)phenyl)-2-chlorobenzenesulfonamide] | 1 to 5 | 50 to 100
Cc1cc(NS(=O)(=O)c2ccccc2Cl)ccc1/C=C/c1cnc(NC2CCC(N)CC2)nc1 (stereo not shown) [Compound 5, N-(4-((E)-2-(2-(((1r,4r)-4-aminocyclohexyl)amino)pyrimidin-5-yl)vinyl)-3-methylphenyl)-2-chlorobenzenesulfonamide] | ≤ 1 | ≤ 5
COc1nc(NS(=O)(=O)c2ccccc2Cl)ccc1/C=C/c1cnc(NC2CCC(N)CC2)nc1 (stereo not shown) [Compound 9, N-(5-((E)-2-(2-(((1r,4r)-4-aminocyclohexyl)amino)pyrimidin-5-yl)vinyl)-6-methoxypyridin-2-yl)-2-chlorobenzenesulfonamide] | ≤ 1 | ≤ 5
COc1cc(NS(=O)(=O)c2ccccc2Cl)ccc1CCc1cnc(NC2CCC(N)CC2)nc1 (stereo not shown) [Compound 15, N-(4-(2-(2-(((1r,4r)-4-aminocyclohexyl)amino)pyrimidin-5-yl)ethyl)-3-methoxyphenyl)-2-chlorobenzenesulfonamide] | ≤ 1 | 100 to 10000
CCc1cc(NS(=O)(=O)c2ccccc2Cl)cnc1CCc1cnc(NC2CCC(N)CC2)nc1 (stereo not shown) [Compound 16, N-(6-(2-(2-(((1r,4r)-4-aminocyclohexyl)amino)pyrimidin-5-yl)ethyl)-5-ethylpyridin-3-yl)-2-chlorobenzenesulfonamide] | ≤ 1 | 100 to 10000
Cc1nc(NS(=O)(=O)c2ccccc2Cl)ccc1CCc1cnc(NC2CCC(O)CC2)nc1 (stereo not shown) [Compound 20, 2-chloro-N-(5-(2-(2-(((1r,4r)-4-hydroxycyclohexyl)amino)pyrimidin-5-yl)ethyl)-6-methylpyridin-2-yl)benzenesulfonamide] | 100 to 1000 | 
Cc1nc(NS(=O)(=O)c2ccccc2Cl)ccc1CCc1cnc(NC2CCC(N(C)C)CC2)nc1 (stereo not shown) [Compound 21, 2-chloro-N-(5-(2-(2-(((1r,4r)-4-(dimethylamino)cyclohexyl)amino)pyrimidin-5-yl)ethyl)-6-methylpyridin-2-yl)benzenesulfonamide] | 1 to 5 | 
Cc1nc(NS(=O)(=O)c2ccccc2Cl)c(F)cc1/C=C/c1cnc(NC2CCC(N(C)C)CC2)nc1 (stereo not shown) [Compound 22, 2-chloro-N-(5-((E)-2-(2-(((1r,4r)-4-(dimethylamino)cyclohexyl)amino)pyrimidin-5-yl)vinyl)-3-fluoro-6-methylpyridin-2-yl)benzenesulfonamide] | ≤ 1 | ≤ 5
Cc1cc(NS(=O)(=O)c2ccccc2Cl)c(F)cc1/C=C/c1cnc(NC2CCC(N(C)C)CC2)nc1 (stereo not shown) [Compound 28, 2-chloro-N-(4-((E)-2-(2-(((1r,4r)-4-(dimethylamino)cyclohexyl)amino)pyrimidin-5-yl)vinyl)-2-fluoro-5-methylphenyl)benzenesulfonamide] | ≤ 1 | ≤ 5
CCc1nc(NS(=O)(=O)c2ccccc2Cl)ccc1/C=C/c1cnc(NC2CCC(N(C)C)CC2)nc1 (stereo not shown) [Compound 29, 2-chloro-N-(5-((E)-2-(2-(((1r,4r)-4-(dimethylamino)cyclohexyl)amino)pyrimidin-5-yl)vinyl)-6-ethylpyridin-2-yl)benzenesulfonamide] | ≤ 1 | ≤ 5
CCN(CC)C1CCC(Nc2ncc(/C=C/c3ccc(NS(=O)(=O)c4ccccc4Cl)nc3C)cn2)CC1 (stereo not shown) [Compound 30, 2-chloro-N-(5-((E)-2-(2-(((1r,4r)-4-(diethylamino)cyclohexyl)amino)pyrimidin-5-yl)vinyl)-6-methylpyridin-2-yl)benzenesulfonamide] | ≤ 1 | ≤ 5
Cc1nc(NS(=O)(=O)c2ccc(F)cc2Cl)ccc1/C=C/c1cnc(NC2CCC(N(C)C)CC2)nc1 (stereo not shown) [Compound 31, 2-chloro-N-(5-((E)-2-(2-(((1r,4r)-4-(dimethylamino)cyclohexyl)amino)pyrimidin-5-yl)vinyl)-6-methylpyridin-2-yl)-4-fluorobenzenesulfonamide] | ≤ 1 | ≤ 5
COc1nc(NS(=O)(=O)c2ccc(F)cc2Cl)ccc1/C=C/c1cnc(NC2CCC(N(C)C)CC2)nc1 (stereo not shown) [Compound 32, 2-chloro-N-(5-((E)-2-(2-(((1r,4r)-4-(dimethylamino)cyclohexyl)amino)pyrimidin-5-yl)vinyl)-6-methoxypyridin-2-yl)-4-fluorobenzenesulfonamide] | ≤ 1 | ≤ 5
Cc1nc(NS(=O)(=O)c2cccc(F)c2Cl)ccc1/C=C/c1cnc(NC2CCC(N(C)C)CC2)nc1 (stereo not shown) [Compound 33, 2-chloro-N-(5-((E)-2-(2-(((1r,4r)-4-(dimethylamino)cyclohexyl)amino)pyrimidin-5-yl)vinyl)-6-methylpyridin-2-yl)-3-fluorobenzenesulfonamide] | ≤ 1 | ≤ 5
CN(C)C1CCC(Nc2ncc(/C=C/c3ccc(NS(=O)(=O)c4ccccc4Cl)cc3)cn2)CC1 (stereo not shown) [Compound 34, 2-chloro-N-(4-((E)-2-(2-(((1r,4r)-4-(dimethylamino)cyclohexyl)amino)pyrimidin-5-yl)vinyl)phenyl)benzenesulfonamide] | ≤ 1 | ≤ 5
CN(C)C1CCC(Nc2ncc(/C=C/c3ccc(NS(=O)(=O)c4ccccc4Cl)c(F)c3)cn2)CC1 (stereo not shown) [Compound 35, 2-chloro-N-(4-((E)-2-(2-(((1r,4r)-4-(dimethylamino)cyclohexyl)amino)pyrimidin-5-yl)vinyl)-2-fluorophenyl)benzenesulfonamide] | ≤ 1 | 5 to 50
CN(C)C1CCC(Nc2ncc(/C=C/c3ccc(NS(=O)(=O)c4ccccc4Cl)nc3)cn2)CC1 (stereo not shown) [Compound 36, 2-chloro-N-(5-((E)-2-(2-(((1r,4r)-4-(dimethylamino)cyclohexyl)amino)pyrimidin-5-yl)vinyl)pyridin-2-yl)benzenesulfonamide] | ≤ 1 | ≤ 5
CN(C)C1CCC(Nc2ncc(/C=C/c3cnc(NS(=O)(=O)c4ccccc4Cl)cn3)cn2)CC1 (stereo not shown) [Compound 37, 2-chloro-N-(5-((E)-2-(2-(((1r,4r)-4-(dimethylamino)cyclohexyl)amino)pyrimidin-5-yl)vinyl)pyrazin-2-yl)benzenesulfonamide] | ≤ 1 | 5 to 50
Cc1nc(NS(=O)(=O)c2ccc(F)c(F)c2Cl)ccc1/C=C/c1cnc(NC2CCC(N(C)C)CC2)nc1 (stereo not shown) [Compound 38, 2-chloro-N-(5-((E)-2-(2-(((1r,4r)-4-(dimethylamino)cyclohexyl)amino)pyrimidin-5-yl)vinyl)-6-methylpyridin-2-yl)-3,4-difluorobenzenesulfonamide] | ≤ 1 | 5 to 50
CN(C)C1CCC(Nc2ncc(C=Cc3cnc(NS(=O)(=O)c4ccccc4Cl)nc3)cn2)CC1 (stereo not shown) [Compound 40, 2-chloro-N-(5-(2-(2-(((1r,4r)-4-(dimethylamino)cyclohexyl)amino)pyrimidin-5-yl)vinyl)pyrimidin-2-yl)benzenesulfonamide] | ≤ 1 | 
COc1nc(NS(=O)(=O)c2cnccc2Cl)ncc1C=Cc1cnc(NC2CCC(N(C)C)CC2)nc1 (stereo not shown) [Compound 43, 4-chloro-N-(5-(2-(2-(((1r,4r)-4-(dimethylamino)cyclohexyl)amino)pyrimidin-5-yl)vinyl)-4-methoxypyrimidin-2-yl)pyridine-3-sulfonamide] | 1 to 5 | 
